GI50 and TGI data for 8 molecules are collected here from PubChem BioAssay (NCI).

Structures are written as SMILES.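 Dose response: 5 concentrations. Exposure: 48 h. Format: 96-well plates. Endpoint: linear interpolation; highest concentration if not reached. Here, GI50 denotes the concentration required for 50% inhibition of growth. The concentration for full growth arrest is given as TGI.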

Test systems include 786-0 renal; BT-549 breast; HCT-15 colon; HOP-92 NSCLC; MALME-3M melanoma; MOLT-4 leukemia; OVCAR-5 ovarian; SF-268 CNS; TK-10 renal; U251 CNS.
Holding throughout (assay): DTP human tumour cell line panel, 48 h

A word on the GI50: it is the concentration at which growth is held to half of that of the control. In general, TGI refers to the concentration giving total growth inhibition. The low end stands for greater sensitivity of the cells, the high end for lower sensitivity of the cells. Consider `COc1ccc(C(=O)OC2C(OC3C(O)COC(O[C@H]4C[C@H]5[C@@H]6CC=C7C[C@@H](O)CC[C@]7(C)[C@H]6CC[C@]5(C)[C@H]4[C@H](C)C(=O)CCC(C)C)C3OC(C)=O)OCC(O)C2O)cc1` (stereo not given in full), for which the GI50 was less than 0.003 µM in the assay on 786-0 renal; less than 0.003 µM in the assay with BT-549 breast; 0.023 µM in the assay on HCT-15 colon; 0.00636 µM in the assay on HOP-92 NSCLC; less than 0.003 µM in the assay on MALME-3M melanoma; less than 0.003 µM in the assay on MOLT-4 leukemia. Also, the concentration for 50% growth inhibition (GI50) in the assay with OVCAR-5 ovarian is 0.00601 µM; in the assay on SF-268 CNS, less than 0.003 µM; in the assay with TK-10 renal, 0.0148 µM; in the assay with U251 CNS, less than 0.003 µM. Further, the TGI in the assay with 786-0 renal is 0.441 µM; in the assay with BT-549 breast, 2.18 µM; with HCT-15 colon, 0.628 µM; with HOP-92 NSCLC it was 1.43 µM; in the assay with MALME-3M melanoma it was 0.129 µM; in the assay with MOLT-4 leukemia, less than 0.003 µM. Further, the TGI in the assay with OVCAR-5 ovarian turned out to be 1.63 µM; in the assay with SF-268 CNS, 1.46 µM; in the assay on TK-10 renal, 6.6 µM; in the assay with U251 CNS it was 3.86 µM.

For `CCN(CC)c1ccc(/C=C/C=C(/C#N)C(N)=S)cc1`, the GI50 in the assay with 786-0 renal was 2.76 µM; in the assay with BT-549 breast, 2.73 µM; with HCT-15 colon, 2.59 µM; in the assay on HOP-92 NSCLC, 10.8 µM; in the assay with MALME-3M melanoma, 32 µM; with MOLT-4 leukemia it was 2.19 µM. Further, the GI50 in the assay with OVCAR-5 ovarian was 4.83 µM; in the assay with SF-268 CNS, 30.2 µM; in the assay on TK-10 renal, 28.7 µM; with U251 CNS, 7.36 µM. In addition, the concentration for total growth inhibition (TGI) with 786-0 renal is 8.69 µM; in the assay on BT-549 breast, 16 µM; in the assay with HCT-15 colon, greater than 100 µM; in the assay on HOP-92 NSCLC it was 71.3 µM; in the assay on MALME-3M melanoma, greater than 100 µM; with MOLT-4 leukemia, 12 µM. For the same molecule, the concentration for total growth inhibition (TGI) in the assay with OVCAR-5 ovarian, with SF-268 CNS, in the assay with TK-10 renal and in the assay on U251 CNS was greater than 100 µM each time.

As for `COc1cc2c(cc1O)C(c1cc(O)c(O)c(OC)c1)C(O)(C(=O)O)C(CO)C2O` (stereo not given), the total growth inhibition concentration (TGI) was 30.5 µM in the assay with 786-0 renal; greater than 100 µM in the assay with BT-549 breast; greater than 100 µM in the assay on HCT-15 colon; greater than 100 µM with HOP-92 NSCLC; greater than 100 µM with MALME-3M melanoma; 44.3 µM in the assay on MOLT-4 leukemia. The TGI with OVCAR-5 ovarian, with SF-268 CNS, in the assay with TK-10 renal and in the assay on U251 CNS was greater than 100 µM each time.

`Oc1ccccc1C=Nc1ccccc1N=Cc1ccccc1O.[Cu+2]`: the GI50 was 10.8 µM with 786-0 renal; 3.24 µM in the assay on BT-549 breast; 5.81 µM in the assay with HCT-15 colon; 1.03 µM in the assay with HOP-92 NSCLC; 6.52 µM in the assay with MALME-3M melanoma; 3.84 µM with MOLT-4 leukemia. Further, the GI50 was 14.8 µM in the assay on OVCAR-5 ovarian, 4.35 µM in the assay on SF-268 CNS, 10.5 µM in the assay on TK-10 renal and 3.4 µM in the assay with U251 CNS. Further, the total growth inhibition concentration (TGI) in the assay with 786-0 renal was 24.7 µM; with BT-549 breast, 11.9 µM; with HCT-15 colon, 24.8 µM; in the assay on HOP-92 NSCLC, 8.9 µM; with MALME-3M melanoma it was 21.2 µM; in the assay with MOLT-4 leukemia it was greater than 100 µM. For the same molecule, the TGI with OVCAR-5 ovarian is 36 µM; with SF-268 CNS, 17.5 µM; in the assay with TK-10 renal, 23.8 µM; in the assay on U251 CNS, 14 µM.

As for `NC(CO)C(=O)NCC(=O)O` (stereo not given), the TGI in the assay on 786-0 renal, in the assay with BT-549 breast, in the assay on HCT-15 colon, in the assay with HOP-92 NSCLC, with MALME-3M melanoma and in the assay with MOLT-4 leukemia was greater than 100 µM throughout. The TGI in the assay with OVCAR-5 ovarian, in the assay on SF-268 CNS, with TK-10 renal and in the assay with U251 CNS was greater than 100 µM in each case.

For `CCN(Cc1cccc(F)c1F)c1ccc(CO)c(Cl)c1`, the GI50 in the assay on 786-0 renal is 13.6 µM; in the assay with BT-549 breast it was 18.5 µM; in the assay on HCT-15 colon it was 12.4 µM; in the assay with HOP-92 NSCLC, 0.19 µM; in the assay on MALME-3M melanoma it was 16 µM; with MOLT-4 leukemia it was 19.8 µM. Besides, the GI50 in the assay with OVCAR-5 ovarian was 0.058 µM; in the assay with SF-268 CNS it was 19.3 µM; in the assay with TK-10 renal, 0.0385 µM; in the assay on U251 CNS, 0.63 µM. For the same molecule, the total growth inhibition concentration (TGI) came to 32.2 µM in the assay with 786-0 renal; 35.9 µM in the assay on BT-549 breast; 36.2 µM with HCT-15 colon; 8.23 µM with HOP-92 NSCLC; 34.2 µM in the assay with MALME-3M melanoma; 49.9 µM in the assay on MOLT-4 leukemia. Besides, the TGI in the assay with OVCAR-5 ovarian amounted to 0.228 µM; in the assay on SF-268 CNS, 42.7 µM; in the assay with TK-10 renal it was 0.23 µM; in the assay on U251 CNS, 22.2 µM.

`Cn1c2ccccc2c2nnc(NNCc3ccccn3)nc21`: the GI50 in the assay with 786-0 renal is 0.327 µM; in the assay with BT-549 breast, 0.729 µM; in the assay on HCT-15 colon, 0.328 µM; in the assay on HOP-92 NSCLC it was 0.279 µM; in the assay on MALME-3M melanoma it was 0.4 µM; in the assay with MOLT-4 leukemia it was 0.38 µM. Further, the GI50 in the assay with OVCAR-5 ovarian is 1.01 µM; in the assay on SF-268 CNS, 0.294 µM; in the assay with TK-10 renal it was 0.614 µM; in the assay with U251 CNS it was 0.446 µM. Moreover, the TGI came to 4.51 µM in the assay with 786-0 renal; 14.9 µM in the assay on BT-549 breast; 17.9 µM in the assay with HCT-15 colon; 5.91 µM in the assay on HOP-92 NSCLC; 4.37 µM in the assay on MALME-3M melanoma; 12.6 µM in the assay with MOLT-4 leukemia. Further, the TGI stood at 15.3 µM in the assay with OVCAR-5 ovarian, 6.5 µM with SF-268 CNS, 14.3 µM in the assay with TK-10 renal and 14.4 µM in the assay on U251 CNS.

Take `Nc1nc(-c2cc(-c3cccc4ccccc34)nc(N)n2)cc(-c2cccc3ccccc23)n1`: the TGI with 786-0 renal, in the assay on BT-549 breast, with HCT-15 colon, in the assay with HOP-92 NSCLC, in the assay with MALME-3M melanoma and with MOLT-4 leukemia was greater than 100 µM each time. The TGI in the assay on OVCAR-5 ovarian, in the assay on SF-268 CNS, in the assay on TK-10 renal and in the assay on U251 CNS was greater than 100 µM throughout.
